# Patent US7582649B2, “Hydroxy alkyl substituted 1,3,8-triazaspiro[4.5]decan-4-one derivatives useful for the treatment of ORL-1 receptor mediated disorders” (Janssen Pharmaceutica, NV, priority 2002, dated 2009)
# Values joined by “and” are separate entries in the source; they are usually repeats but may differ in a detail not shown here. Equal entries are not always repeated. Where two headings read alike, the source gives them in different places.
# Legend:
# Long-Evans Hooded rats [1] = settings: rat, in vivo, po; for Total Entries (EPM), % Change / Total Entries (EPM), Mean: male, Long-Evans Hooded
# Long-Evans Hooded rats [2] = test: Stress induced hyperthermia (SIH) in vivo assay, rectal temperature; parameters: species or system rat
# Method: (§1) Male Long-Evans Hooded rats weighing 180 to 200 grams at the time of purchase were obtained from Charles River Laboratories (Raleigh, N.C.). Upon arrival, the animals were group housed four per cage in quarantine for 5 days in wire-mesh cages at an ambient temperature of 21 to 23° C. with an automated 12/12 hour light/dark cycle and ad libitum access to water and a commercial rodent chow. The rats were then transferred to a general housing room for a one-week acclimation with housing and environmental conditions, and 12/12 hour light/dark cycle conditions. Animals were fasted overnight (18 hours) prior to experiment.
# […] One hour after dosing, baseline rectal temperatures were recorded for each rat. Rats were then immediately isolated in shoebox cages with ALPHA-DRY bedding. Rectal temperatures were then recorded at 15 min, 30 min, and 45 min after isolation (i.e., 1 hr 15 min, 1 hr 30 min, and 1 hr 45 minutes after test compound or vehicle administration). All experiments were conducted during the light cycle. After completion of the behavioral portion of the study, each animal was killed via decapitation using a guillotine and trunk blood was collected in 5 mL vacutainer tube containing EDTA and placed on ice. The samples were then centrifuged at 3800 RPM for 10 minutes and plasma was removed and placed on dry ice in an Eppendorff sample tube. Plasma samples were stored at −80° C. and later used for determining ACTH, corticosterone, and glucose levels. Plasma samples were outsourced to Anilytics, Inc. for determination of plasma levels of ACTH, coricosterone, and glucose. A Mann-Whitney U t-test (one-tailed) was used for statistical analysis of behavioral data and an unpaired t-test (one-tailed) was used for analysis of plasma ACTH, corticosterone, and glucose levels.
# Compound #438 was suspended in an aqueous vehicle comprised of 0.5% (w/v) methylcellulose (15 centipoises) solution.
# Long-Evans Hooded rats [3] = test: Plasma stress hormone levels (ACTH, corticosterone, glucose) after SIH; assay type: in vivo, rat; settings: p.o.
# Method: as §1
# On the day of experiment, group-housed (4/group) Long-Evans Hooded rats were divided into various treatment groups (N=8 to 32) and test compound at 0.03-3.0 mg/kg or vehicle was administered orally (p.o.) by gavage in a dose volume equivalent to 5 mL/kg. One hour after dosing, baseline rectal temperatures were recorded for each rat. Rats were then immediately isolated in shoebox cages with ALPHA-DRY bedding. Rectal temperatures were then recorded at 15 min, 30 min, and 45 min after isolation (i.e., 1 hr 15 min, 1 hr 30 min, and 1 hr 45 minutes after test compound or vehicle administration). All experiments were conducted during the light cycle. […]
# mu opioid receptor = mu opioid receptor (Homo sapiens, UniProt P35372); test: Filtration binding assay: mu opioid receptor
# Chain of mu opioid receptor (P35372 whole entry): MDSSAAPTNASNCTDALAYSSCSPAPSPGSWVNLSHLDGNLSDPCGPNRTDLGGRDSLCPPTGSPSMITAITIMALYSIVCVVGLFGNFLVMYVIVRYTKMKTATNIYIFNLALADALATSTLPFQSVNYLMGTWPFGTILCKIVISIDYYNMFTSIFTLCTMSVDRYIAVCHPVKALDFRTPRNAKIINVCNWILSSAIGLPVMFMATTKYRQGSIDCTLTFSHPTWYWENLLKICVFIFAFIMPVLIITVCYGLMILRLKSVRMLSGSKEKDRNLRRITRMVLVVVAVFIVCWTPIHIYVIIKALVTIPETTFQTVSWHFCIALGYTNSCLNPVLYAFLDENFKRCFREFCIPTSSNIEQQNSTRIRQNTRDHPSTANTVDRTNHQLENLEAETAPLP
# Long-Evans Hooded rats [4] = settings: male, rat, in vivo, po
# kappa opioid receptor = kappa opioid receptor (Homo sapiens, UniProt P41145); test: Filtration binding assay: kappa opioid receptor
# Chain of kappa opioid receptor (P41145 whole entry): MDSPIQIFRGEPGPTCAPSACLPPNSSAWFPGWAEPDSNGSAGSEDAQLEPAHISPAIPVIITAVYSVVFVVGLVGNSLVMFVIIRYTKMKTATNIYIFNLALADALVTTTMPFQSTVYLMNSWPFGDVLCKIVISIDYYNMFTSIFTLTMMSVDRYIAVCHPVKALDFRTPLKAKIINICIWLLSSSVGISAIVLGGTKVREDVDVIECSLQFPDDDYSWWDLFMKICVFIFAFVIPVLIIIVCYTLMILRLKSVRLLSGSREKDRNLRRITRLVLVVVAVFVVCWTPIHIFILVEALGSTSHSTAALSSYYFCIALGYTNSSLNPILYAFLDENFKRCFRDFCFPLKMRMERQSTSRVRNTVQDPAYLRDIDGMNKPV
smiles,measurement,setting,value
"Cc1cccc2cccc(CN3CCC4(CC3)C(=O)N(C[C@H](O)CN)CN4c3ccc(F)cc3)c12 [Compound #438, 3-(3-Amino-2-(R)-hydroxy-propyl)-1-(4-fluoro-phenyl)-8-(8-methyl-naphthalen-1-ylmethyl)-1,3,8-triaza-spiro[4.5]decan-4-one]","Total Entries (EPM), % Change",Long-Evans Hooded rats [1]; 0.03 mg/kg,1.0%
same,"Total Entries (EPM), Mean",Long-Evans Hooded rats [1]; 0.03 mg/kg,102.0
same,"Total Entries (EPM), % Change",Long-Evans Hooded rats [1]; 10 mg/kg,−6.4%
same,"Total Entries (EPM), Mean",Long-Evans Hooded rats [1]; 10 mg/kg,94.5
same,"Total Entries (EPM), % Change",Long-Evans Hooded rats [1]; 30 mg/kg,−14.6%
same,"Total Entries (EPM), Mean",Long-Evans Hooded rats [1]; 30 mg/kg,86.3
same,"% Open Arm Entries (EPM), % Change",Long-Evans Hooded rats [1]; 0.03 mg/kg,−11.1%
same,"% Open Arm Entries (EPM), Mean",Long-Evans Hooded rats [1]; 0.03 mg/kg,5.14%
same,"% Open Arm Time (EPM), % Change",Long-Evans Hooded rats [1]; 0.03 mg/kg,−18.8%
same,"% Open Arm Time (EPM), Mean",Long-Evans Hooded rats [1]; 0.03 mg/kg,6.67%
same,"% Open Arm Entries (EPM), % Change",Long-Evans Hooded rats [1]; 0.1 mg/kg,34.4% and 40.4%
same,"% Open Arm Entries (EPM), Mean",Long-Evans Hooded rats [1]; 0.1 mg/kg,7.77% and 9.17%
same,"% Open Arm Time (EPM), Mean",Long-Evans Hooded rats [1]; 0.1 mg/kg,12.1% and 17.2%
same,"% Open Arm Entries (EPM), % Change",Long-Evans Hooded rats [1]; 0.3 mg/kg,54.8% and 80.7%
same,"% Open Arm Entries (EPM), Mean",Long-Evans Hooded rats [1]; 0.3 mg/kg,8.95% and 11.8%
same,"% Open Arm Time (EPM), Mean",Long-Evans Hooded rats [1]; 0.3 mg/kg,13.8% and 21.8%
same,"% Open Arm Entries (EPM), % Change",Long-Evans Hooded rats [1]; 1 mg/kg,72.1% and 46.6%
same,"% Open Arm Entries (EPM), Mean",Long-Evans Hooded rats [1]; 1 mg/kg,9.95% and 9.57%
same,"% Open Arm Time (EPM), % Change",Long-Evans Hooded rats [1]; 1 mg/kg,80.3% and 89.7%
same,"% Open Arm Time (EPM), Mean",Long-Evans Hooded rats [1]; 1 mg/kg,14.8% and 15.1%
same,"% Open Arm Entries (EPM), % Change",Long-Evans Hooded rats [1]; 3 mg/kg,44.3% and 37.8%
same,"% Open Arm Entries (EPM), Mean",Long-Evans Hooded rats [1]; 3 mg/kg,8.34% and 9.0%
same,"% Open Arm Time (EPM), Mean",Long-Evans Hooded rats [1]; 3 mg/kg,12.4% and 16.9%
same,"% Open Arm Entries (EPM), % Change",Long-Evans Hooded rats [1]; 10 mg/kg,11.1%
same,"% Open Arm Entries (EPM), Mean",Long-Evans Hooded rats [1]; 10 mg/kg,6.4%
same,"% Open Arm Time (EPM), % Change",Long-Evans Hooded rats [1]; 10 mg/kg,0.9%
same,"% Open Arm Time (EPM), Mean",Long-Evans Hooded rats [1]; 10 mg/kg,8.14%
same,"% Open Arm Entries (EPM), % Change",Long-Evans Hooded rats [1]; 30 mg/kg,15.1%
same,"% Open Arm Entries (EPM), Mean",Long-Evans Hooded rats [1]; 30 mg/kg,6.65%
same,"% Open Arm Time (EPM), % Change",Long-Evans Hooded rats [1]; 30 mg/kg,−60.9%
same,"% Open Arm Time (EPM), Mean",Long-Evans Hooded rats [1]; 30 mg/kg,3.21%
same,"Rectal Temp., Mean","Long-Evans Hooded rats [2]; 0.03 mg/kg p.o., 0 (Basal), 1 hr after dosing",37.5 °C
same,"Rectal Temp., Mean","Long-Evans Hooded rats [2]; 0.03 mg/kg p.o., 15 min after isolation",38.7 °C
same,"Rectal Temp., Mean","Long-Evans Hooded rats [2]; 0.03 mg/kg p.o., 30 min after isolation",38.6 °C
same,"Rectal Temp., Mean","Long-Evans Hooded rats [2]; 0.03 mg/kg p.o., 45 min after isolation",38.4 °C
same,"Rectal Temp., Mean","Long-Evans Hooded rats [2]; 0.1 mg/kg p.o., 0 (Basal), 1 hr after dosing",37.2 °C
same,"Rectal Temp., Mean","Long-Evans Hooded rats [2]; 0.1 mg/kg p.o., 15 min after isolation",38.4 °C
same,"Rectal Temp., Mean","Long-Evans Hooded rats [2]; 0.1 mg/kg p.o., 30 min after isolation",38.5 °C
same,"Rectal Temp., Mean","Long-Evans Hooded rats [2]; 0.1 mg/kg p.o., 45 min after isolation",38.5 °C
same,"Rectal Temp., Mean","Long-Evans Hooded rats [2]; 0.3 mg/kg p.o., 0 (Basal), 1 hr after dosing",37.4 °C
same,"Rectal Temp., Mean","Long-Evans Hooded rats [2]; 0.3 mg/kg p.o., 15 min after isolation",38.4 °C
same,"Rectal Temp., Mean","Long-Evans Hooded rats [2]; 0.3 mg/kg p.o., 30 min after isolation",38.5 °C
same,"Rectal Temp., Mean","Long-Evans Hooded rats [2]; 0.3 mg/kg p.o., 45 min after isolation",38.3 °C
same,"Rectal Temp., Mean","Long-Evans Hooded rats [2]; 1.0 mg/kg p.o., 0 (Basal), 1 hr after dosing",37.1 °C
same,"Rectal Temp., Mean","Long-Evans Hooded rats [2]; 1.0 mg/kg p.o., 15 min after isolation",38.4 °C
same,"Rectal Temp., Mean","Long-Evans Hooded rats [2]; 1.0 mg/kg p.o., 30 min after isolation",38.5 °C
same,"Rectal Temp., Mean","Long-Evans Hooded rats [2]; 1.0 mg/kg p.o., 45 min after isolation",38.2 °C
same,"Rectal Temp., Mean","Long-Evans Hooded rats [2]; 3.0 mg/kg p.o., 0 (Basal), 1 hr after dosing",37.0 °C
same,"Rectal Temp., Mean","Long-Evans Hooded rats [2]; 3.0 mg/kg p.o., 15 min after isolation",38.2 °C
same,"Rectal Temp., Mean","Long-Evans Hooded rats [2]; 3.0 mg/kg p.o., 30 min after isolation",38.4 °C
same,"Rectal Temp., Mean","Long-Evans Hooded rats [2]; 3.0 mg/kg p.o., 45 min after isolation",38.2 °C
same,rectal temperature in the SIH model,"Long-Evans Hooded rats [2]; p.o., at 0.03 mg/kg, 0.01 mg/kg, 0.3 mg/kg, 1.0 mg/kg and 3.0 mg/kg",attenuation of rectal temperature
same,changes in the plasma levels of corticosterone,Long-Evans Hooded rats [3],not statistically significant
same,reduction in plasma ACTH levels,"Long-Evans Hooded rats [3]; 0.3 mg/kg, P=0.0170",25%
same,IC50,mu opioid receptor,> 10 µM
same,"Horizontal Activity (SMA), % Change",Long-Evans Hooded rats [4]; 0.03 mg/kg,9.9%
same,"Horizontal Activity (SMA), Mean",Long-Evans Hooded rats [4]; 0.03 mg/kg,3565
same,"Vertical Movement (SMA), % Change",Long-Evans Hooded rats [4]; 0.03 mg/kg,12.5%
same,"Vertical Movement (SMA), Mean",Long-Evans Hooded rats [4]; 0.03 mg/kg,54.8
same,"Horizontal Activity (SMA), % Change",Long-Evans Hooded rats [4]; 10 mg/kg,−4.0%
same,"Horizontal Activity (SMA), Mean",Long-Evans Hooded rats [4]; 10 mg/kg,3115
same,"Vertical Movement (SMA), % Change",Long-Evans Hooded rats [4]; 10 mg/kg,11.9%
same,"Vertical Movement (SMA), Mean",Long-Evans Hooded rats [4]; 10 mg/kg,54.5
same,"Horizontal Activity (SMA), % Change",Long-Evans Hooded rats [4]; 30 mg/kg,−15.8%
same,"Horizontal Activity (SMA), Mean",Long-Evans Hooded rats [4]; 30 mg/kg,2730
same,"Vertical Movement (SMA), % Change",Long-Evans Hooded rats [4]; 30 mg/kg,−7.0%
same,"Vertical Movement (SMA), Mean",Long-Evans Hooded rats [4]; 30 mg/kg,45.3
same,IC50,kappa opioid receptor,> 10 µM
